From patent publication US7531500B2, “Preventing airway mucus production by administration of EGF-R antagonists” (The Regents of the University of California, priority 1998, dated 2009)

What was measured:
[1] = system: NCI-H292 cells; experiment: Immunoassay of MUC5AC protein in NCI-H292 cells (Example 2); format: cell-based, human; details: for MUC5AC protein synthesis induced by the supernatant of activated neutrophils: BIBX1522 10 μg/ml, AG1478 10 μM, AG1295 100 μM, A1 100 μM, 30 min pretreatment, antibodies preincubated with supernatant; for MUC5AC synthesis by supernatant of activated neutrophils, cigarette smoke and H2O2 / MUC5AC protein synthesis by TGFα: DMSO 1%, SOD 300 U/ml; for MUC5AC synthesis by supernatant of activated neutrophils, cigarette smoke and H2O2: DMTU 50 mM
Procedure: Cell Culture. NCI-H292 cells, a human pulmonary mucoepidermoid carcinoma cell line, were grown in RPMI 1640 medium containing 10% fetal bovine serum, penicillin (100 U/ml), streptomycin (100 μg/ml) and Hepes (25 mM) at 37° C. in a humidified 5% CO2, water-jacketed incubator. Either 6-well culture plates or 8-chamber slides were used to culture the cells. […] The cells were then washed and incubated with fresh medium alone. Experiments were terminated at preselected times (for mRNA, 6 h and 12 h; for protein, 24 h). As controls, cells were incubated with medium alone for same time periods. […] In inhibition studies with blocking antibodies to EGF-R ligands, the supernatants were pretreated with anti-TGFα antibody (Calbiochem) or anti-EGF antibody for 30 min and then added to NCI-H292 cells. The role of oxygen free radicals was examined using scavengers of oxygen free radical DMSO (1%, Sigma), 1,3-dimethyl-2-thiourea (DMTU, 50 mM, Sigma), or superoxide dismutase (SOD, 300 U/ml, Sigma).
Preparation of Cigarette Smoke Solution. Research cigarettes (code2R1, produced for the University of Kentucky Tobacco and Health Research Foundation) were used in the study. Cigarette smoke solution was prepared as previously described (Dusser et al. (1989) J. Clin. Invest. 84:900-906). In brief, cigarette smoke was withdrawn into a polypropylene syringe (35 ml) at a rate of one puff/min (10 times) and bubbled slowly into 20 ml of RPM11640 containing 50 mM Hepes buffer. The smoke solution was then titrated to pH 7,4 and used immediately after preparation.
Immunoassay of MUC5AC Protein. MUC5AC protein was measured as described above. In brief, cell lysates were prepared with PBS at multiple dilutions, and 50 μl of each sample was incubated with bicarbonate-carbonate buffer (50 μl) at 40° C. in a 96-well plate (Maxisorp Nunc, Fisher Scientific, Santa Clara, Calif.), until dry. Plates were washed three times with PBS and blocked with 2% BSA (fraction V, Sigma) for 1 h at room temperature. Plates were again washed three times with PBS and then incubated with 50 μl of mouse monoclonal MUC5AC antibody (1:100) that was diluted with PBS containing 0.05% Tween 20. After 1 h, the wells were washed three times with PBS, and 100 μl horseradish peroxidase-goat anti-mouse IgG conjugate (1:10,000, Sigma) was dispensed into each well. After 1 h, plates were washed three times with PBS. Color reaction was developed with TMB peroxidase solution (Kirkegaard & Perry Laboratories, Gaithersburg, Md.) and stopped with 2N H2SO4. Absorbance was read at 450 nm.

[2] = system: NCI-H292 cells; experiment: MUC5AC mRNA and protein in NCI-H292 cells incubated with cigarette smoke solution (Example 7); format: cell-based, human; details: BIBX1522 10 μg/ml, AG1478 10 μM; for MUC5AC protein synthesis induced by cigarette smoke solution: AG1295 100 μM, A1 100 μM, DMSO 1%, SOD 300 U/ml
Procedure: NCI-H292 cells, a human pulmonary mucoepidermoid carcinoma cell line, were grown in RPMI 1640 medium containing 10% fetal bovine serum, penicillin (100 U/ml), streptomycin (100 μg/ml) and Hepes (25 mM) at 37° C. in a humidified 5% CO2 water-jacketed incubator. Either 6-well culture plates or 8-chamber slides were used to culture the cells. When confluent, cells were incubated for 1 hour with cigarette smoke solution. The cells were then washed and incubated with fresh medium alone. Experiments were terminated at preselected times (for mRNA, 6 hours and 12 hours; for protein, 24 hours). As controls, cells were incubated with medium alone for same time periods. […] The effects of a selective inhibitor of platelet-derived growth factor receptor tyrosine kinase (tyrphostin AG1295, 100 μM, Calbiochem), and a negative control for tyrphostins (tyrphostin A1, 100 μM, Calbiochem) were also examined. The role of reactive oxygen species was examined using a scavenger of oxygen free radicals DMSO (1%, Sigma), or superoxide dismutase (SOD, 300 U/ml, Sigma).
In situ hybridization was performed using a human EGFR probe, which contains a 350-bp cDNA fragment of the human EGFR gene (pTRI-EGFR-human probe template, Ambion, Austin, Tex.) and a human MUC5AC probe, which contains a 298-bp cDNA fragment of the human MUC5AC gene, The 350-bp cDNA human EGFR was subcloned into pBluescript II SK-vector at Kpn I and EcoR I sites. This pBluescript was used to generate human EGFR antisense and sense probes. Hybridization was performed as described previously. Lou et al. (1998) Am. J. Respir. Crit. Care Med. 157:1927-1934. In brief, the cells grown on the 8-chamber slides were fixed in 4% paraformaldehyde, rehydrated in 0.5×SSC, and then acetylated in triethanolamine and acetic anhydride. Hybridization was carried out with 2500-4000 cpm/μl of antisense or sense probe in 50% deionized formamide, 0.3 M NaCl, 20 mM Tris, 5 mM EDTA, 1× Denhardt's solution, 20 mM dithiothreitol, 10% dextran sulfate, 0.5 mg/ml yeast tRNA, and 0.5 mg/ml sonicated salmon sperm DNA at 58° overnight. Posthybridization treatment consisted of washes with 2×SSC, 1 mM EDTA, 10 mM β-mercaptoethanol at room temperature, incubation with RNase solution (20 μg/ml) for 30 min at room temperature, and further washes in 0.1×SSC, 1 mM EDTA, 10 mM β-mercaptoethanol at 55° C. for 2 hours and then in 0.5×SSC at room temperature for 20 minutes. Specimens were dehydrated, air-dried, and covered with Kodak NBT nuclear track emulsion (Eastman Kodak, Rochester, N.Y.) for autoradiography. After exposure for 7 to 21 days at 4° C., the slides were developed, fixed, and counterstained with hematoxylin.
MUC5AC protein was measured as described previously. Takeyama et al. (1999) Proc. Natl. Acad. Sci. USA 96:3081-3086. In brief, cell lysates were prepared with PBS at multiple dilutions, and 50 μl of each sample was incubated with bicarbonate-carbonate buffer (50 μl) at 40° C. in a 96-well plate (Maxisorp Nunc, Fisher Scientific, Santa Clara, Calif.), until dry. Plates were washed three times with PBS and blocked with 2% bovine serum albumin, fraction V (Sigma) for 1 hour at room temperature. Plates were again washed three times with PBS and then incubated with 50 μl of MUC5AC mAb (1:1 00) that was diluted with PBS containing 0.05% Tween 20. After 1 hour, the wells were washed three times with PBS, and 100 μl horseradish peroxidase-goat anti-mouse IgG conjugate (1:10,000) was dispensed into each well. After 1 hour, plates were washed three times with PBS. Color reaction was developed with 3,3′,5,5′-tetramethylbenzidine (TMB) peroxidase solution (Kirkegaard & Perry Laboratories, Gaithersburg, Md.) and stopped with 2N H2S04. Absorbance was read at 450 nm.

[3] = molecular target: EGFR (Homo sapiens, UniProt P00533); experiment: Immunoprecipitation of EGF-R and immunoblotting for tyrosine phosphorylation in NCI-H292 cells; format: cell-based; design: These cells express EGF-R constitutively; endogenous in cells; host or cells: NCI-H292 (human pulmonary mucoepidermoid carcinoma)
Procedure: Immunoprecipitation for EGF-R Protein and Immunoblotting for Tyrosine Phosphorylation. Cells were serum-starved for 24 h and then stimulated with TGFα, H2O2, or the supernatant of activated neutrophils for 15 min. After stimulation, cells were lysed and incubated for 30 min in an orbital shaker at 4° C. To remove insoluble material, cell lysates were centrifuged at 14,000 rpm for 5 min at 4° C. Aliquots of supernatants containing equal amounts of protein were immunoprecipitated with anti-EGF receptor antibody (polyclonal, Ab4, Calbiochem) and 20 μl of protein A-agarose (Santa Cruz) for 2 h at 4° C. Precipitates were washed three times with 0.5 ml of lysis buffer, suspended in SDS sample buffer, and boiled for 5 min. Proteins were separated by SDS-PAGE in 8.0% acrylamide gel. The resulting gel was equilibrated in the transfer buffer: 25 mM Tris-HCl, 192 mM glycine, 20% (vol/vol) methanol, pH 8.3. The proteins were then transferred electrophoretically to nitrocellulose membranes (0.22 μm), blocked with 5% fat-free skimmed milk in PBS containing 0.05% Tween 20 overnight and then incubated with monoclonal anti-phosphotyrosine antibody (1:100,Santa Cruz) for 1 h. Bound antibody was visualized according to a standard protocol for the avidin-biotin-alkaline phosphatase complex method (ABC kit, Vector Laboratories).

Sequence of EGFR (P00533 25-1210): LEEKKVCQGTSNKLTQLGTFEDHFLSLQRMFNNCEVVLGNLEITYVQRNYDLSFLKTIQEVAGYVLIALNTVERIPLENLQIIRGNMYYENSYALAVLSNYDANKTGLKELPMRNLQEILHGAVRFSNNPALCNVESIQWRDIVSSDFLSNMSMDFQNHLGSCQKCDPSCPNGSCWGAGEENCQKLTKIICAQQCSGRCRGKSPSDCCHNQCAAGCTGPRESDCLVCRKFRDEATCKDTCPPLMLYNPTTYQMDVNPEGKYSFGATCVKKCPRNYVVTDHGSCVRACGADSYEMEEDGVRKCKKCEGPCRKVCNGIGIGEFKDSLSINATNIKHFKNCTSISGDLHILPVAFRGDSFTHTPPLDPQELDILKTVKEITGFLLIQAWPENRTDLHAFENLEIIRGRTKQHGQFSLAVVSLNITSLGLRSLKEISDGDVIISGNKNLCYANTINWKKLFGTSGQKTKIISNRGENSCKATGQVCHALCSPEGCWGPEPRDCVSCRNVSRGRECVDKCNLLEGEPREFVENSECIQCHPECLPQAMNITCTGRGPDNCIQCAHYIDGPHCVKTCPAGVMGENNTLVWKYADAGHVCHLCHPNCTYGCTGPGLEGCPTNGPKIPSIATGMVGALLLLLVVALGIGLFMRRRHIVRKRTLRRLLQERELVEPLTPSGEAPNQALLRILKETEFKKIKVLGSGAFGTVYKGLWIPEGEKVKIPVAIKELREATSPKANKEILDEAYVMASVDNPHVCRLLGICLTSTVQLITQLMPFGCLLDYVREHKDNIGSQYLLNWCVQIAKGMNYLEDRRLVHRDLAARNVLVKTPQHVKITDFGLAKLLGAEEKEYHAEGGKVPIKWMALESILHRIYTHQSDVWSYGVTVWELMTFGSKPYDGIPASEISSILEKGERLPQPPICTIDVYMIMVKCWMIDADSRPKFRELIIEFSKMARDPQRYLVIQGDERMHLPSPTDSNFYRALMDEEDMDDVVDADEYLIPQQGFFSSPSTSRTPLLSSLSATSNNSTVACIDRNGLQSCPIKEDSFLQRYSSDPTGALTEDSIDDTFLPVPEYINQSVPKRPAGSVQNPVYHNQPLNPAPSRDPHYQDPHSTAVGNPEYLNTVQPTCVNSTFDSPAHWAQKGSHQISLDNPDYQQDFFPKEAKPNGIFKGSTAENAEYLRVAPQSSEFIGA

Compound | MUC5AC protein synthesis induced by the supernatant of activated neutrophils [1] | MUC5AC protein synthesis induced by cigarette smoke solution [2] | increase in MUC5AC protein synthesis induced by all stimuli (cigarette smoke, H2O2, TGFα) ([1]; pretreatment 10 μM) | MUC5AC mRNA expression induced by cigarette smoke solution [2] | MUC5AC synthesis induced by cigarette smoke [1] | MUC5AC synthesis by supernatant of activated neutrophils, cigarette smoke and H2O2 [1] | MUC5AC protein synthesis by TGFα [1] | TGFα-induced EGF-R tyrosine phosphorylation [3] | supernatant-, cigarette smoke-, and H2O2-induced EGF-R tyrosine phosphorylation [3]
Cc1cc2ncc(-c3ccccc3)nc2cc1C [AG1295] | without effect | without effect |  |  |  |  |  |  | 
COc1cc2ncnc(Nc3cccc(Cl)c3)c2cc1OC [AG1478] | prevented | prevented | prevented | prevented |  |  |  |  | 
C[S+](C)[O-] [DMSO] |  | inhibited significantly |  |  | partially inhibited | significantly inhibited | unaffected | had no effect | inhibited
superoxide dismutase [SOD] |  | inhibited significantly |  |  | partially inhibited | significantly inhibited | unaffected |  | 
